{
  "source": "patent US8669232B2",
  "about": "“Flavonol compounds, a bioactive extract/fraction from Ulmus wallichiana and its compounds for prevention for treatment of osteo-health related disorders” (Council of Scientific & Industrial Research, priority 2008, dated 2014)",
  "key": {"[1]": {"tested_on": "Ishikawa cells", "assay": "In vitro estrogenicity / anti-estrogenicity (ALP induction)", "type": "cell-based, human", "conditions": "10^−11 to 10^−6 M, 72 h", "protocol": "The expression of alkaline phosphatase is induced in Ishikawa cells in response to estrogen or estrogen like substances (Littlefield et al, Endocrinology. 1990 December; 127(6):2757-62.). Ishikawa cells were plated in 96-well flat bottomed microtiter plates at a density of 5000 cells/well and cultured in phenol red free DMEM containing 10% charcoal treated FCS. After 24 h of plating, cells were serum-starved for 12 h. Thereafter, for testing estrogenicity of compounds, the cells were treated with different concentrations (10^−6 to 10^−11 M) of pure compounds K058 and K012. Same concentrations of Raloxifene were also used for comparison. Estrogen concentration of 10^−8 M was used as a positive control. Compound treatments were performed for 72 h at 37° C. in CO2 incubator. Experiments were repeated 4 times. For the anti-estrogenicity studies, the compounds K012 and K058 at 10^−6 to 10^−11 M were added with 10^−8 M estrogen. After 72 h of incubation, the media was removed and the plates were washed twice with PBS and dried by tapping, gently. Freeze fracture of cells was achieved by placing the plates at −70° C. for 15, min followed by bringing to room temperature. The plates were then placed on ice and 50 μl of ice cold diethanolamine solution (5 mM P-nitrophenyl phosphate (PNP) and 0.25 mM MgCl2 in 1 M diethanolamine) was added to each well. The plates were then placed at 37° C. for 30 minutes for color (yellow) development is a function of ALP activity. Absorbance was measured at 405 nm."}, "[2]": {"tested_on": "3T3-L1 preadipocytes", "assay": "Semi-quantitative RT-PCR of adipogenic genes", "type": "cell-based, murine", "conditions": "10^−7 & 10^−9M, 8 d", "protocol": "RT-PCR was performed for assessing the expression of PPAR-γ (peroxisome proliferator-activated receptor) and adiponectin. The house keeping gene GAPDH was used as the internal control in this study. 3T3-L1 preadipocytes were cultured under differentiation condition to form adipocytes in the presence of K068 and K100 at 10^−6, 10^−7 and 10^−9 M concentrations for 8 days. Following the culture, cellular RNA was extracted and RT-PCR performed using a kit (Fermentas) according to manufacturer's instructions."}, "[3]": {"tested_on": "calvarial osteoblasts", "assay": "Alkaline phosphatase activity assay in calvarial osteoblasts", "type": "cell-based, neonatal Sprague-Dawley rats", "protocol": "(§1) Neonatal rat calvarial cell cultures are prepared as described previously (Chattopadhyay et al., Endocrinology 145:3451-62, 2004) using slight modification. Briefly, for calvarial osteoblast cultures, frontal and parietal bones from neonatal Sprague-Dawley rats (1-3 day old) were digested in 0.1% collagenase/0.1% dispase in α-MEM to obtain 5 sequential digests. The second through fifth digests are combined and grown to confluence at 37° C. and 5% CO2 in air in α-MEM, supplemented with 10% fetal bovine serum (FBS), 2 mM glutamine, 100 U/ml penicillin-streptomycin, non-essential amino acid solution and sodium pyruvate.\nFor alkaline phosphatase (ALP) assay, osteoblasts were plated in 96-well (2000 cells/well) plates in regular growth medium. Twenty-four hours later, when the cells formed a confluent monolayer, medium was replaced with α-MEM medium supplemented with 10% FBS, 10 mM β-glycerophosphate and 50 μg/ml ascorbic acid. Treatment was given with varying concentration of the test compound K012, K058, K068 and K100 at 1 nM and 100 nM concentration. Forty-eight hours after induction, ALP activity of the osteoblasts was determined as described by Akiyama et al (Exp Cell Res 235:362-369, 1997) with slight modifications. Briefly, cells were washed once with PBS and ALP activity was measured by adding ALP buffer (1 M diethanolamine, 0.5 mM MgCl2, 1 mg/ml PNPP, pH 9.0), incubating in 37° C., and absorbance (405 nm) was measured using a microplate spectrophotometer. Statistical significance was determined by paired two-tailed Student's t-tests."}, "[4]": {"tested_on": "Bone marrow cells (BMCs)", "assay": "In vitro mineralization from mouse bone marrow", "type": "cell-based, balb/c mice", "conditions": "1 nM and 100 nM, 21 days", "excerpt": "Adult balb/c mice were used in this study. Bone marrow cells (BMCs) were harvested from the femurs and tibias of the animals, as described elsewhere (Maniatopoulos et al. Cell Tissue Res 1988:254:317-30.; Ishaug et al., J Biomed Mater Res 1997; 36:17-28.). Briefly, bones were aseptically excised from the hind limbs of the mice following ether euthanasia. The soft tissue was removed, and the proximal end of the femur and distal end of the tibia were clipped off using sterile scissors, a hole was created in the knee joint end of each bone with an needle, and the marrow was flushed from the shaft with control medium (CM) which consisted of α-MEM supplemented with 10% fetal calf serum, 100 U/ml penicillin, 100 U/ml streptomycin (Sigma, Chemical Co., St. Louis, Mo., USA). The cells were suspended in this medium, and the cell suspensions from all bones were combined in a centrifuge tube. The suspension was spun down at 800 rpm for 5 min. Cells were counted by using a haemocytometer. The supernatant was aspirated, and the pellet was re-suspended in fresh CM and then seeded into 12-well plates. 200000 cells/well were cultured in 12-well plates and in a humidified atmosphere, with 5% CO2, at 37° C. in the same medium supplemented with 10 mM-β-glycerophosphate, 50 μg/ml L-ascorbic acid and 10^−8M dexamethasone with different concentration of the test compound. This medium was replaced every other day (John et al. Trends. Biomater. Artif. Organs 2002:16(1):28-33.; Connolly. Clin Orthop 1995:313: 8-18.; Gebhart and Lane. Acta Orthop Belg 1991:57(2):130-43.; Gurpinar et al. J Biomater Appl 2003; 18(1):25-33; Lan and Wang, Blood Substitutes. Biotechnol 2003; 31(1):59-68.). Treatments K012, K058, K068 and K0100 at 1 nM and 100 nM concentration were given for 21 days and after completion of the treatment samples were rinsed with PBS followed by fixation (4% HCHO for […]). Samples were then rinsed with nanopure water and stained for 10 min with 40 mM AR-S, pH 4.2, at room temperature. Photomicrographs of the stained wells were taken. Subsequently, alizarin red-S stain was extracted using 10% (w/v) CPC in […] sodium phosphate, pH 7.0, for […] at room temperature, and the resulting solutions were read on a Microplate reader with a test wavelength of 540 nm against a reference wavelength of 620 nm."}, "[5]": {"tested_on": "3T3-L1 preadipocyte cells", "assay": "In vitro adipogenesis (oil red-O)", "type": "cell-based, murine", "conditions": "for adipocyte differentiation (oil red-O): 1 μM, 100 nM and 1 nm, 8 days", "protocol": "3T3-L1 preadipocyte cells were cultured to confluency. Two days after the cells reached confluency was considered as day 0. At day 0, cells were treated with the induction media [10% calf serum/DMEM containing 1 μg/ml insulin, 1 μM dexamethasone and 500 μM isobutylmethylxanthine (IBMX). Two days after induction medium treatment (day 2), the cells were treated with insulin [10% calf serum/DMEM containing 1 μg/ml insulin. Full differentiation was usually achieved after 8 days from day 0. To test the effect of the test compound on the differentiation of 3T3-L1 preadipocytes to adipocytes, the test compounds K068 and K100 at 1 μM, 100 nM and 1 nm concentrations were used in different concentrations throughout differentiation (for 8 days starting from day 0). For assessment of adipogenesis the differentiated cells were fixed in 4% paraformaldehyde w/v for 20 min, washed with PBS and stained with 0.34% Oil Red 0 in 60% isopropanol for 15 minutes. Then it was washed with PBS thrice and stain was extracted with 80% isopropanol by keeping it at room temperature for 30 minutes on an orbital shaker. OD of the extracted dye was taken at 520 nm."}, "[6]": {"tested_on": "calvarial osteoblasts", "assay": "In vitro mineralization of calvarial osteoblasts (alizarin red-S, von kossa)", "type": "cell-based, neonatal Sprague-Dawley rats", "conditions": "for Von kossa staining (mineralized nodules) compared with controls (vehicle): 21 days culture", "protocol": "as §1\nAbility of cells to produce mineralized matrix is important with regard to development of materials for bone regeneration. Mineralization of extracellular matrix by osteoblasts was determined using alizarin red-S (AR-S) assay combined with cetylpyridinium chloride (CPC) extraction. (Stanford et al, J. Biol. Chem. 270:9420-9428; 1995.) Alizarin red is a dye that binds selectively to nascent calcium salts and is widely used for calcium mineral histochemistry. Cells were seeded onto a six well plate containing 10000 cells/well in culture medium supplemented with 10 mM β-glycerophosphate and 50 μg/ml ascorbic acid with test compounds K012, K058, K068 and K0100 at 1 nM and 100 nM concentration. Treatment was given for 21 days and after completion of the treatment samples were rinsed with PBS followed by fixation (4% HCHO for 20 min). Photomicrographs of the stained wells were taken. Subsequently, alizarin red-S stain was extracted using 10% (w/v) cetylpyridinium chloride (CPC) in […] sodium phosphate, pH 7.0, for 15 min at room temperature, and the resulting solutions were read on a Microplate reader with a test wavelength of 540 nm against a reference wavelength of 620 nm. Mineralization nodules were also seen by Von kossa staining procedure (A. M. Chou et al. Materials Science and Engineering C 20 (2002) 77-83.) After 21 days culture, cells in tissue culture wells were washed with PBS and immersed in 5% (w/v) silver nitrate solution for 45 min. After rinsing with distilled water, they were fixed in 5% (w/v) sodium bicarbonate formalin for 8 min. Finally, they were immersed in 5% (w/v) sodium thiosulphate solution for 5 min and washed thoroughly with water for 15 min and photomicrographs were taken."}},
  "data": [
    {"smiles": "O=C(c1ccc(OCCN2CCCCC2)cc1)c1c(-c2ccc(O)cc2)sc2cc(O)ccc12", "note": "[raloxifene, reference compound]", "values": [
      {"measurement": "ALP levels (estrogenicity)", "setting": "[1]", "result": "no response"}
    ]},
    {"smiles": "O=C1CC(c2ccc(O)cc2)Oc2cc(O)c(C3O[C@H](CO)[C@@H](O)[C@H](O)[C@H]3O)c(O)c21", "note": "(some centres unmarked) [K068, 6-Glucopyranosyl-4′,5,7-trihydroxyflavanone]", "values": [
      {"measurement": "mRNA levels of PPAR-γ", "setting": "[2]", "result": "decreased"},
      {"measurement": "mRNA levels of adiponectin", "setting": "[2]", "result": "decreased"},
      {"measurement": "osteoblast differentiation (summary of in vitro effects)", "setting": "[3]", "result": "promoted"},
      {"measurement": "mineralization of bone marrow osteoblasts (alizarin red staining)", "setting": "[4]", "result": "stimulated"},
      {"measurement": "anti-adipogenic activity in 3T3 L1 cell line (summary of in vitro effects)", "setting": "[5]", "result": "have anti-adipogenic activity"},
      {"measurement": "adipocyte differentiation (oil red-O)", "setting": "[5]", "result": "significantly inhibited"},
      {"measurement": "osteoblast mineralization (summary of in vitro effects)", "setting": "[6]", "result": "promoted"},
      {"measurement": "Von kossa staining (mineralized nodules) compared with controls (vehicle)", "setting": "[6]", "result": "increased"}
    ]},
    {"smiles": "O=C1c2c(cc(O)c([C@@H]3OC(CO)[C@@H](O)[C@H](O)C3O)c2O)O[C@@H](c2ccc(O)cc2)[C@@H]1O", "note": "(stereo partly drawn) [K100, (2S,3S)-(+)-4′,5,7-trihydroxydihydroflavonol-6-C-β-D-glucopyranoside]", "values": [
      {"measurement": "mRNA levels of PPAR-γ", "setting": "[2]", "result": "decreased"},
      {"measurement": "mRNA levels of adiponectin", "setting": "[2]", "result": "decreased"},
      {"measurement": "osteoblast differentiation (summary of in vitro effects)", "setting": "[3]", "result": "promoted"},
      {"measurement": "mineralization of bone marrow osteoblasts (alizarin red staining)", "setting": "[4]", "result": "stimulated"},
      {"measurement": "anti-adipogenic activity in 3T3 L1 cell line (summary of in vitro effects)", "setting": "[5]", "result": "have anti-adipogenic activity"},
      {"measurement": "adipocyte differentiation (oil red-O)", "setting": "[5]", "result": "significantly inhibited"},
      {"measurement": "osteoblast mineralization (summary of in vitro effects)", "setting": "[6]", "result": "promoted"},
      {"measurement": "Von kossa staining (mineralized nodules) compared with controls (vehicle)", "setting": "[6]", "result": "increased"}
    ]}
  ]
}
